Laboratory results: patent publication US7148232B2, “Oxazolo, thiazolo and selenazolo [4,5-c]-quinolin-4-amines and analogs thereof” (3M Innovative Properties Company, priority 1998, dated 2006)
Structures can show the parent of a compound that is named as a salt.

Assays:
[1] = test system: tumor necrosis factor (α); experiment: Cytokine induction in human cells: tumor necrosis factor (α) secreted by PBMCs (ELISA); assay type: cell-based; details: 18 to 24 hours
Description: (§1) An in vitro human blood cell system was used to assess cytokine induction by compounds of the invention.
(§2) Whole blood is collected by venipuncture into EDTA vacutainer tubes from healthy human donors. […] The PBMC suspension is added to 48 well flat bottom sterile tissue culture plates (Costar, Cambridge, Mass. or Becton Dickinson Labware, Lincoln Park, N.J.) containing an equal volume of RPMI complete media containing test compound.
(§3) The compounds are solubilized in dimethyl sulfoxide (DMSO). The DMSO concentration should not exceed a final concentration of 1% for addition to the culture wells.
(§4) The solution of test compound is added at 60 μM to the first well containing RPMI complete and serial 3 fold dilutions are made. The PBMC suspension is then added to the wells in an equal volume, bringing the test compound concentrations to the desired range (0.12 to 30 μM). The final concentration of PBMC suspension is 1.5–2×10^6 cells/mL. The plates are covered with sterile plastic lids, mixed gently and then incubated for 18 to 24 hours at 37° C. in a 5% carbon dioxide atmosphere.
(§5) Following incubation the plates are centrifuged for 5–10 minutes at 1000 rpm (˜200×g) at 4° C. The cell culture supernatant is removed with a sterile polypropylene pipet and transferred to sterile polypropylene tubes. Samples are maintained at −30 to −70° C. until analysis. The samples are analyzed for interferon (α) by either ELISA or bioassay and for tumor necrosis factor (α) by ELISA
Tumor necrosis factor (α) (TNF) concentration is determined using ELISA kits available from Genzyme, Cambridge, Mass.; R&D Systems, Minneapolis, Minn.; or Pharmingen, San Diego, Calif. according to the manufacturer's instructions.

interferon (α) [2] = experiment: Interferon (α) induction in human cells (in vitro human blood cell system, interferon by bioassay); assay type: cell-based; details: human PBM's, 48 hours
Description: An in vitro human blood cell system was used to assess interferon induction by compounds of the invention. Activity is based on the measurement of interferon secreted into culture media. Interferon is measured by bioassay.
Whole blood is collected by venipuncture into EDTA vacutainer tubes. Peripheral blood mononuclear cells (PBM's) are separated from whole blood by using either LeucoPREP™ Brand Cell Separation Tubes (available from Becton Dickinson) or Ficoll-Paque® solution (available from Pharmacia LKB Biotechnology Inc, Piscataway, N.J.). […] 200 μL portions of PBM suspension are added to 96 well (flat bottom) sterile tissue culture plates (Becton Dickinson Labware, Lincoln Park, N.J.).
The compounds are solubilized in ethanol, dimethyl sulfoxide or tissue culture water then diluted with tissue culture water, 0.01N sodium hydroxide or 0.01N hydrochloric acid (The choice of solvent will depend on the chemical characteristics of the compound being tested.). Ethanol or DMSO concentration should not exceed a final concentration of 1% for addition to the culture wells. Compounds are initially tested in a concentration range of from about 0.1 μg/mL to about 5 μg/mL. Compounds which show induction at a concentration of 0.5 μg/mL are then tested in a wider concentration range.
The solution of test compound is added in a volume (less than or equal to 50 μL) to the wells containing 200 μL of diluted whole blood or of PBM's in media. Solvent and/or media is added to control wells (wells with no test compound) and as needed to adjust the final volume of each well to 250 μL. The plates are covered with plastic lids, vortexed gently and then incubated for 48 hours at 37° C. with a 5% carbon dioxide atmosphere.
Following incubation, the plates are covered with parafilm and then centrifuged at 1000 rpm for 10 to 15 minutes at 4° C. in a Damon IEC Model CRU-5000 centrifuge. Media (about 200 μL) is removed from 4 to 8 wells and pooled into 2 mL sterile freezing vials. Samples are maintained at −70° C. until analysis.
Interferon is determined by bioassay using A549 human lung carcinoma cells challenged with encephalomyocarditis. The details of the bioassay method have been described by G. L. Brennan and L. H. Kronenberg in “Automated Bioassay of Interferons in Micro-test Plates”, Biotechniques, June/Jul. […] The incubated cells are infected with an inoculum of encephalomyocarditis virus. The infected cells are incubated for an additional period at 37° C. before quantifying for viral cytopathic effect. The viral cytopathic effect is quantified by staining followed by spectrophotometric absorbance measurements. Results are expressed as alpha reference units/mL based on the value obtained for NIH HU IF-L standard.
Compounds of the invention were tested for their ability to induce interferon in human cells using the test method described above.

interferon (α) [3] = experiment: Cytokine induction in human cells: interferon (α) secreted by PBMCs (ELISA or bioassay); assay type: cell-based; details: 18 to 24 hours
Description: as §1, §2, §3, §4, §5
Interferon is determined by bioassay using A549 human lung carcinoma cells challenged with encephalomyocarditis. […] Briefly stated the method is as follows: A549 cells are incubated with dilutions of samples or a standard interferon at 37° C. for 24 hours. The incubated cells are then infected with an inoculum of encephalomyocarditis virus. The infected cells are incubated for an additional 24 hours at 37° C. before evaluating for viral cytopathic effect. The viral cytopathic effect is quantified by staining with crystal violet followed by visual scoring of the plates. Results are expressed as alpha reference units/mL based on the value obtained for NIH Human Leukocyte IFN standard.
Interferon (α) concentration is determined by ELISA using a Human Multi-Species kit from PBL Biomedical Laboratories, New Brunswick, N.J. according to the manufacturer's instructions.

Compound: CCc1nc2c(N)nc3ccccc3c2s1.Cl
- melting point: 268 to 270 °C

Compound: CCCCc1nc2c(N)nc3ccccc3c2s1 [Example 18, 2-Butylthiazolo[4,5-c]quinolin-4-amine]
- Tumor Necrosis Factor Induction ([1]; Dose Concentration 0.12 μM): +
- Tumor Necrosis Factor Induction ([1]; Dose Concentration 0.37 μM): +
- Tumor Necrosis Factor Induction ([1]; Dose Concentration 1.11 μM): +
- Tumor Necrosis Factor Induction ([1]; Dose Concentration 3.33 μM): +
- Tumor Necrosis Factor Induction ([1]; Dose Concentration 10 μM): +
- Tumor Necrosis Factor Induction ([1]; Dose Concentration 30 μM): +
- Interferon (α) Induction in Human Cells (interferon (α) [2]; Dose Concentration 0.01 μg/mL): −
- Interferon (α) Induction in Human Cells (interferon (α) [2]; Dose Concentration 0.05 μg/mL): −
- Interferon (α) Induction in Human Cells (interferon (α) [2]; Dose Concentration 0.10 μg/mL): +
- Interferon (α) Induction in Human Cells (interferon (α) [2]; Dose Concentration 0.50 μg/mL): +
- Interferon (α) Induction in Human Cells (interferon (α) [2]; Dose Concentration 1.0 μg/mL): +
- Interferon (α) Induction in Human Cells (interferon (α) [2]; Dose Concentration 5.0 μg/mL): +
- Interferon (α) Induction (interferon (α) [3]; Dose Concentration 0.12 μM): −
- Interferon (α) Induction (interferon (α) [3]; Dose Concentration 0.37 μM): −
- Interferon (α) Induction (interferon (α) [3]; Dose Concentration 1.11 μM): +
- Interferon (α) Induction (interferon (α) [3]; Dose Concentration 3.33 μM): +
- Interferon (α) Induction (interferon (α) [3]; Dose Concentration 10 μM): +
- Interferon (α) Induction (interferon (α) [3]; Dose Concentration 30 μM): +

Compound: CCCc1nc2c(N)nccc2s1 (as salt: trifluoroacetate) [Example 62, 2-Propylpyrido[3,4-d][1,3]thiazol-4-amine Trifluoroacetate]
- melting point: 160 to 162 °C

Compound: [O-][n+]1cc2nc(CCc3ccccc3)sc2c2ccccc21 [Example 23, 2-(2-Phenyl-1-ethyl)thiazolo[4,5-c]quinoline-5N-oxide]
- melting point: 165 to 169 °C

Compound: CC(C)(O)Cc1nc2c[n+]([O-])c3ccccc3c2s1 [Example 25, 2-Methyl-1-(thiazolo[4,5-c]quinolin-2-yl)-2-propanol-5N-oxide]
- melting point: 187 to 189 °C

Compound: CCCc1nc2c[n+]([O-])ccc2s1 [Example 61, 2-Propylpyrido[3,4-d][1,3]thiazole-5N-oxide]
- melting point: 137 to 139 °C

Compound: Cl.Nc1nc2ccccc2c2scnc12.O [Example 5, Thiazolo[4,5-c]quinolin-4-amine Hydrochloride Hydrate]
- Interferon (α) Induction in Human Cells (interferon (α) [2]; Dose Concentration 0.01 μg/mL): −
- Interferon (α) Induction in Human Cells (interferon (α) [2]; Dose Concentration 0.05 μg/mL): −
- Interferon (α) Induction in Human Cells (interferon (α) [2]; Dose Concentration 0.10 μg/mL): −
- Interferon (α) Induction in Human Cells (interferon (α) [2]; Dose Concentration 0.50 μg/mL): −
- Interferon (α) Induction in Human Cells (interferon (α) [2]; Dose Concentration 1.0 μg/mL): +
- Interferon (α) Induction in Human Cells (interferon (α) [2]; Dose Concentration 5.0 μg/mL): +
- Interferon (α) Induction in Human Cells (interferon (α) [2]; Dose Concentration 10.0 μg/mL): +
- Interferon (α) Induction in Human Cells (interferon (α) [2]; Dose Concentration 25.0 μg/mL): +
- Interferon (α) Induction in Human Cells (interferon (α) [2]; Dose Concentration 50.0 μg/mL): +

Compound: CCCCc1nc2c(N)nc3ccccc3c2o1 [Example 41, 2-Butyloxazolo[4,5-c]quinolin-4-amine]
- Interferon (α) Induction in Human Cells (interferon (α) [2]; Dose Concentration 0.01 μg/mL): +
- Interferon (α) Induction in Human Cells (interferon (α) [2]; Dose Concentration 0.05 μg/mL): +
- Interferon (α) Induction in Human Cells (interferon (α) [2]; Dose Concentration 0.10 μg/mL): +
- Interferon (α) Induction in Human Cells (interferon (α) [2]; Dose Concentration 0.50 μg/mL): +
- Interferon (α) Induction in Human Cells (interferon (α) [2]; Dose Concentration 1.0 μg/mL): +
- Interferon (α) Induction in Human Cells (interferon (α) [2]; Dose Concentration 5.0 μg/mL): +

Compound: [O-][n+]1cc2nc(/C=C/c3ccccc3)sc2c2ccccc21 [Example 21, 2-(2-Phenyl-1-ethenyl)thiazolo[4,5-c]quinoline-5N-oxide]
- melting point: 268 to 270 °C

Compound: CCCc1nc2c[n+]([O-])c3cccnc3c2s1 [Example 59, 2-Propylthiazolo[4,5-c][1,5]naphthyridine-5N-oxide]
- melting point: 139 to 142 °C

Compound: CCCc1nc2c[n+]([O-])c3ccc(C)cc3c2s1 [Example 35, 8-Methyl-2-propylthiazolo[4,5-c]quinoline-5N-oxide]
- melting point: 143 to 145 °C

Compound: CCOCc1nc2c[n+]([O-])c3ccccc3c2s1 [Example 27, 2-(Ethoxymethyl)thiazolo[4,5-c]quinoline-5N-oxide]
- melting point: 138 to 140 °C

Compound: Nc1nc2ccccc2c2scnc12 [Example 6, Thiazolo[4,5-c]quinolin-4-amine]
- melting point: 172.4 °C (dec.)

Compound: CCCc1nc2c[n+]([O-])c3ccccc3c2s1 [Example 11, 2-Propylthiazolo[4,5-c]quinoline-5N-oxide]
- melting point: 123 °C

Compound: Nc1nc2ccccc2c2sc(Cc3ccccc3)nc12 (as salt: hydrochloride) [Example 34, 2-Benzylthiazolo[4,5-c]quinolin-4-amine Hydrochloride]
- melting point: 152 to 155 °C

Compound: [O-][n+]1cc2nc(N3CCOCC3)sc2c2ccccc21 [Example 52, 2-(4-Morpholino)thiazolo[4,5-c]quinoline-5N-oxide]
- melting point: 241 to 242 °C

Compound: CCCCc1nc2c[n+]([O-])c3ccccc3c2s1 [Example 17, 2-Butylthiazolo[4,5-c]quinoline-5N-oxide]
- melting point: 133 to 135 °C

Compound: CCCc1nc2c(N)nccc2s1 [Example 62, 2-Propylpyrido[3,4-d][1,3]thiazol-4-amine Trifluoroacetate]
- Tumor Necrosis Factor Induction ([1]; Dose Concentration 0.12 μM): −
- Tumor Necrosis Factor Induction ([1]; Dose Concentration 0.37 μM): −
- Tumor Necrosis Factor Induction ([1]; Dose Concentration 1.11 μM): −
- Tumor Necrosis Factor Induction ([1]; Dose Concentration 3.33 μM): −
- Tumor Necrosis Factor Induction ([1]; Dose Concentration 10 μM): −
- Tumor Necrosis Factor Induction ([1]; Dose Concentration 30 μM): −
- Interferon (α) Induction (interferon (α) [3]; Dose Concentration 0.12 μM): −
- Interferon (α) Induction (interferon (α) [3]; Dose Concentration 0.37 μM): −
- Interferon (α) Induction (interferon (α) [3]; Dose Concentration 1.11 μM): −
- Interferon (α) Induction (interferon (α) [3]; Dose Concentration 3.33 μM): −
- Interferon (α) Induction (interferon (α) [3]; Dose Concentration 10 μM): −
- Interferon (α) Induction (interferon (α) [3]; Dose Concentration 30 μM): −

Compound: Nc1nc2ccccc2c2sc(Cc3ccccc3)nc12 [Example 34, 2-Benzylthiazolo[4,5-c]quinolin-4-amine Hydrochloride]
- Interferon (α) Induction in Human Cells (interferon (α) [2]; Dose Concentration 0.01 μg/mL): −
- Interferon (α) Induction in Human Cells (interferon (α) [2]; Dose Concentration 0.05 μg/mL): −
- Interferon (α) Induction in Human Cells (interferon (α) [2]; Dose Concentration 0.10 μg/mL): −
- Interferon (α) Induction in Human Cells (interferon (α) [2]; Dose Concentration 0.50 μg/mL): −
- Interferon (α) Induction in Human Cells (interferon (α) [2]; Dose Concentration 1.0 μg/mL): −
- Interferon (α) Induction in Human Cells (interferon (α) [2]; Dose Concentration 5.0 μg/mL): −
